Results on 7 compounds are retold here after PMC4456413, “Trypanothione Reductase: A Target Protein for a Combined In Vitro and In Silico Screening Approach” (PLoS Neglected Tropical Diseases, 2015).

Where two headings read alike, the source gives them in different places.

Data set [1] has as its target T1, T. cruzi TR (Trypanosoma cruzi, UniProt P28593).
T1 construct: made in house
As to the kind of experiment: biochemical. The procedure:
(§1) The compounds used in the enzymatic inhibitory testing and the in silico screening were available as stock solutions in DMSO or in solid from a compound library maintained at MSD. All IC50 determinations were performed starting from solid material. Recombinant T. cruzi TR (CL strain) was prepared using a published expression system. TS2 was prepared enzymatically as described previously. For antiparasitic studies, culture-adapted bloodstream T. brucei parasites of cell line 449 were used. These cells are descendants of strain Lister 427 stably transfected with the gene for the tetracycline repressor.
The kinetic analysis of TR was performed in 384-well plates (Greiner Bio-One GmbH, Frickenhausen, Germany). The reaction mixture (50 μl) contained 5 mU/ml TR, 40 mM Hepes, pH 7.5, 1 mM EDTA, 300 μM NADPH (Sigma-Aldrich), 0.1 mg/ml BSA, and 0.01% Pluronic (BASF). […] In a volume of 30 μl, the assay components and the inhibitor were pre-incubated for 30 minutes and the reaction started by adding 20 μl of 375 μM TS2 resulting in final concentrations of 150 μM TS2 and 2% DMSO. The absorption decrease at 340 nm was measured by start and end point determination resulting in a delta of the optical density (delta A) for 30 min. All experiments were performed at room temperature. The TR concentration was kept constant at 5 mU/ml for all types of experiments. Therefore, after an initial calculation of the turnover number (kcat), only delta A values under identical conditions were compared. Initial screening was performed twice in two independent experiments.
Eleven compound concentrations were used ranging from 100–0.01 μM or 200–0.004 μM. The compounds were freshly dissolved in DMSO. All measurements were performed twice in three independent series. Enzyme activities were plotted versus increasing inhibitor concentrations. IC50 values were calculated using the four-parameter equation model 205 and the option “unlock” from the XLfit add-in (IDBS, Guildford, United Kingdom) in Excel (Microsoft Corporation, Redmond, WA).
A robust NADPH-linked photometric assay was chosen that firstly had to be adapted to the high throughput screening format. The assay volume was reduced from the 1 ml cuvette format to 50 μl total volume in 384 well plates. […] In order to stabilize the enzyme and to prevent adhesion and reduce surface tension as well as the formation of droplets in the small wells, 0.1 mg/ml BSA and 0.01% detergent (Pluronic) were added to the reaction mixture.

The target of data set [2] is T1, T. cruzi TR. Description: Ki determination and inhibition type on TR. In kind it is biochemical. Conditions: for binding mode (inhibition type): SigmaPlot Enzyme Kinetics Module; for Ki (Fig 7, uncompetitive mode of inhibition assumed): mean of two independent experiments, no unit printed in the figure, in µM. The procedure: The kinetic analysis of TR was performed in 384-well plates (Greiner Bio-One GmbH, Frickenhausen, Germany). The reaction mixture (50 μl) contained 5 mU/ml TR, 40 mM Hepes, pH 7.5, 1 mM EDTA, 300 μM NADPH (Sigma-Aldrich), 0.1 mg/ml BSA, and 0.01% Pluronic (BASF). The detergent was used to prevent the formation of droplets during pipetting and had no negative effects on the assay kinetics. In a volume of 30 μl, the assay components and the inhibitor were pre-incubated for 30 minutes and the reaction started by adding 20 μl of 375 μM TS2 resulting in final concentrations of 150 μM TS2 and 2% DMSO. The absorption decrease at 340 nm was measured by start and end point determination resulting in a delta of the optical density (delta A) for 30 min. All experiments were performed at room temperature. The TR concentration was kept constant at 5 mU/ml for all types of experiments. Therefore, after an initial calculation of the turnover number (kcat), only delta A values under identical conditions were compared. Initial screening was performed twice in two independent experiments.
Measurements were performed at 60, 80, 120, and 200 μM TS2 and five inhibitor concentrations resulting in 20 different data points per inhibitor. […] SigmaPlot 10 (Systat Software, Inc., San Jose, USA) with the Enzyme Kinetics Module was used to evaluate the inhibition type and Ki values. This software automatically estimates the initial parameters for different fit models, and uses the Marquardt-Levenberg algorithm to determine the parameter values. A detailed statistical report as well as a data report is generated to compare multiple models and graphs. Based on these statistics, the appropriate binding model can be selected. Graphs are created based on the models and the calculated parameter values instead of fitting each individual inhibitor concentration curve.

In data set [3] the target is T1, T. cruzi TR. Description: Mode of inhibition study: reversibility of binding (Amicon filter wash-out, then standard TR assay). In kind it is biochemical.
Method: Therefore, Amicon Ultra 0.5 ml centrifugal filters with a cut-off of 10,000 MW (Millipore Corporation, Billerica, MA, USA) were washed with 400 μl TR assay buffer and centrifuged for 5 min at 12,500 rpm at room temperature. Remaining buffer was removed by placing the filter upside down into a microcentrifuge tube and centrifugation at 3,500 rpm for 2 min. […] The filter was centrifuged for 15 min at 12,500 rpm, washed three times with 400 μl buffer and centrifuged again. The retentate was collected by placing the filter upside down on a new tube and centrifugation at 3,500 rpm for 2 min. The recovered protein solutions were subjected to a standard TR assay.
A reaction mixture containing TR, inhibitor and NADPH was incubated for 30 minutes. […] Afterwards, the protein was separated from the low molecular mass components by centrifugation in an Amicon tube. Inhibitors with a reversible binding mode would be washed out, whereas irreversible binders remain bound to the protein. Finally, the recovered protein solution was subjected to a standard assay to determine the remaining activity. Two controls were run to determine the maximum activity that could be recovered. One contained the protein assay mixture without inhibitor, while the second control was a mixture of TR and the reversible inhibitor chlorhexidine. […] Subsequently the inhibitor type and constants were determined.
For data set [4], the system named is bloodstream T. brucei (strain 449). Description: Cell culture activity determination by counting living cells. In kind it is cell-based. The settings on record: for EC50: Trypanosoma brucei, read-out: EC50, inhibition of parasite proliferation (living cells counted). The procedure: as §1
Compounds were dissolved in DMSO to 10 mM stock solutions and added to bloodstream T. brucei (strain 449) in concentrations of 100, 50, 5, 0.5, and 0.05 μM in 24-well plates. The final DMSO content in the cultures was 1, 0.5, 0.05, 0.005 and 0.0005%, respectively. The initial cell density was 2500 cells/ml. After 48 h and 72 h incubation at 37°C in HMI-9 medium, viable cells were counted in a Neubauer chamber. The assay was performed in triplicate. The parasite strain and the culture conditions are described in the literature.

The target of a further data set is TR. Also on record: method as in ref 39 (mepacrine), 42 (BG237), 43 (chlorhexidine). The settings on record: published data used for assay validation; ref 39 (mepacrine), 42 (BG237), 43 (chlorhexidine); cited from earlier work.
On the set-up of data set [5]: method as in ref 47 = [47]; 47 PubChem (2014) Chlorhexidine (CID 9552079), sections “Biomedical Effects and Tixicity” and “Biomolecular Interactions and Pathways”. Available: http://pubchem.ncbi.nlm.nih.gov/summary/summary.cgi?c. Conditions: in words; cited from earlier work.
Data set [6] relates to bloodstream T. brucei wild-type cells. Description: EC50 determination by ATPlite 1step assay, wild-type cells. Conditions: Trypanosoma brucei. The class given is cell-based. The procedure:
(§2) The ATPlite 1step assay system (PerkinElmer, Waltham, MA, USA) was used as described in Füller et al. to quantify T. brucei survival in medium-throughput dose-response series. Experiments were conducted in 96-well microplates (PerkinElmer, Waltham, MA, USA), each well containing 90 μl cell-culture and 10 μl compound. Initial cell densities were 2500 cells/ml. […] Unfortunately, compound 3 was no longer available for testing. […] For each compound, three identical plates were prepared, incubated at 37°C and analyzed after 24 h, 48 h, and 72 h, respectively. Samples from each cell-line left untreated were added to the plates prior to each measurement as additional controls. 50 μl of the ATPlite 1step solution (PerkinElmer, Waltham, MA, USA) were added to each well and the relative luminescence was measured immediately using a VICTOR Multilabel Plate Reader (PerkinElmer, Waltham, MA, USA) at room temperature. The values obtained were plotted against the logarithmic compound concentrations. A dose-response curve was generated from which EC50-values were calculated using the program PRISM 5.0 (GraphPad Software, La Jolla, CA, USA).
(§3) The parasites were cultured in the presence of different concentrations of the compounds and after 48 h and 72 h living cells were counted. […] The assay is based on the emission of light caused by the reaction of ATP with D-luciferin in the presence of luciferase, which is proportional to the amount of ATP serving as a marker for cell viability. […] Unfortunately, the T. brucei strain allowing the down-regulation of TR which was generated more than a decade ago in the laboratory of Christine Clayton is not available anymore. Therefore, this tet-inducible overexpressing system leading to up to three fold higher TR levels had to be used instead. Wild-type cells treated with 1 μg/ml tetracyclin were included to exclude any effect of the antibiotic on parasite proliferation.

Data set [7] has as its system T. brucei parasites transfected with pHD1700-TbTR (TR-Over-expressing cells). As to the kind of experiment: EC50 determination by ATPlite 1step assay, TR-over-expressing cells. In kind it is cell-based. Conditions: Trypanosoma brucei. Here is the method: as §2, §3
In general terms: ATP-based viability assays read luminescence as a measure of living cells.

The next data set relates to T. brucei. Conditions: read-out: EC50, inhibition of proliferation of T. brucei; cited from earlier work.
[8] abbreviates: HTS format, Ki ± SD (n = 3), Table 1, read-out: Ki Measured.
The mark [9] stands for this setting: 60-200 μM TS2, two independent experiments.
[10] abbreviates: 60-200 μM TS2, two independent experiments, read-out: Ki, assumed inhibitor type competitive.
Where [11] appears, read: 60-200 μM TS2, two independent experiments, read-out: Ki, assumed inhibitor type noncompetitive.

T1 sequence (P28593 whole entry): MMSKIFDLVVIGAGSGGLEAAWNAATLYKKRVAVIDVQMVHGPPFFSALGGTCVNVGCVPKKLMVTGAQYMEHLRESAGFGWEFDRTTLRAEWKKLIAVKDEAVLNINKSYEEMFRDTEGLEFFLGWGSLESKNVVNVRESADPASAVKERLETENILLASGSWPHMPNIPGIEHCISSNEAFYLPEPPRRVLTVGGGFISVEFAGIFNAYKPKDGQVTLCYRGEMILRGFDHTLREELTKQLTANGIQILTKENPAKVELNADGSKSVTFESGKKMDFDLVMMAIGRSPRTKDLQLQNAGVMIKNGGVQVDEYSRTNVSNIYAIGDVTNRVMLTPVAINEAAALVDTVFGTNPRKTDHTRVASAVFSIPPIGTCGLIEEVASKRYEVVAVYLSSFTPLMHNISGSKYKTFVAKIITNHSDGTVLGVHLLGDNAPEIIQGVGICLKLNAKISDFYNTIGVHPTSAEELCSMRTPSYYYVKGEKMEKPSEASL

By IC50 is commonly meant the point on the concentration scale where inhibition reaches its midpoint. In general, Ki refers to the dissociation constant of the complex between target and ligand, obtained from inhibition or displacement. On to `[H]/N=C(\N/C(=N/[H])NCCCCCCNC(=N)NC(=N)Nc1ccc(Cl)cc1)Nc1ccc(Cl)cc1` [Chlorhexidine, reference compound], for which the IC50 against T. cruzi TR [1] came to 26 ± 2 µM. Moreover, the values for the Ki on T. cruzi TR [2] (setting [8]) and at TR were 4 ± 1 µM and 2 µM, respectively. Also, the “binding mode (inhibition type)” value at T. cruzi TR [2] is given as “competitive binding mode”. Also, the “reversible or irreversible binding to the enzyme” value on T. cruzi TR [3] (100 μM inhibitor, 300 μM NADPH, 30 min incubation, wash-out) is on record as “reversible”. Moreover, the “TR activity recovered compared to the initial kinetics” value on T. cruzi TR [3] (after wash-out of the inhibitor) was 70–80%. The EC50 in data set [4] was 0.1 to 0.2 µM. The “permeability described in pharmacokinetic studies” value in [5] is on record as “poor permeability”.
Regarding `O=C(Nc1ccccc1)OCCSc1ccc([N+](=O)[O-])c2nonc12` [Compound 1], half-maximal inhibition at T. cruzi TR [1] (IC50) required 0.27 ± 0.01 µM. Also, the “Ki, assumed inhibitor type uncompetitive” value on T. cruzi TR [2] (setting [9]) was 0.23 ± 0.02 µM. The Ki stood at 0.06 ± 0.03 µM on T. cruzi TR [2] (setting [10]) and 0.33 ± 0.03 µM on T. cruzi TR [2] (setting [11]). Moreover, the “Ki (Fig 7, uncompetitive mode of inhibition assumed)” value at T. cruzi TR [2] came out at 0.23 ± 0.02.
For the compound `O=[N+]([O-])c1c(Sc2ncnc3ccccc23)cc(Cl)c2nsnc12` [Compound 2], on T. cruzi TR [1], inhibition was half-maximal at 0.58 ± 0.09 µM (IC50). In addition, the “Ki, assumed inhibitor type uncompetitive” value at T. cruzi TR [2] (setting [9]) stood at 0.88 ± 0.08 µM. Moreover, the values for the inhibition constant Ki at T. cruzi TR [2] (setting [10]) and at T. cruzi TR [2] (setting [11]) were 0.26 ± 0.12 µM and 1.3 ± 0.12 µM, respectively. For the same compound, the “Ki (Fig 7, uncompetitive mode of inhibition assumed)” value on T. cruzi TR [2] was determined as 0.88 ± 0.08. The EC50 in [4] is 5 to 50 µM; in [6] (read-out: EC50 24 h, Wild-type cells, ATPlite, 24 h, mean ± SD of three series), 56.4 ± 2 µM; in [6] (read-out: EC50 48 h, Wild-type cells, ATPlite, 48 h, mean ± SD of three series) it was 33 ± 2.2 µM; in data set [6] (read-out: EC50 at 24 h (ATPlite), 24 h, cell type not given) it was 42 µM; in data set [6] (read-out: EC50 at 48 h (ATPlite), 48 h, cell type not given) it was 42 µM; in data set [6] (72 h, cell type not given, read-out: EC50 after 72 h (ATPlite)), 58 µM. The EC50 in data set [6] (ATPlite, 72 h, series containing up to 150 μM compound = 1.5% DMSO, which affects cell viability, read-out: EC50 72 h, Wild-type cells) is 55.9 ± 1.3 µM; in data set [7] (24 h, read-out: EC50 24 h, TR-Over-expressing cells), 37.6 ± 1.9 µM; in [7] (48 h, read-out: EC50 48 h, TR-Over-expressing cells) it was 46.9 ± 3.1 µM; in data set [7] (72 h, read-out: EC50 72 h, TR-Over-expressing cells), 82 ± 1.6 µM.
Turning to `O=[N+]([O-])c1c(Cl)cc(Cl)c2nsnc12` [Compound 3], the midpoint of inhibition on T. cruzi TR [1], the IC50, lay at 0.61 ± 0.09 µM. The “Ki, assumed inhibitor type uncompetitive” value at T. cruzi TR [2] (setting [9]) came to 0.64 ± 0.06 µM. For the same compound, the Ki was found to be 0.15 ± 0.09 µM on T. cruzi TR [2] (setting [10]) and 0.91 ± 0.08 µM on T. cruzi TR [2] (setting [11]). Further, the “Ki (Fig 7, uncompetitive mode of inhibition assumed)” value at T. cruzi TR [2] stood at 0.64 ± 0.06. Further, the EC50 in data set [4] lay within 5 to 50 µM.
For `NS(=O)(=O)c1ccc(Nc2cc(Cl)c3nonc3c2[N+](=O)[O-])cc1` [Compound 4], inhibition on T. cruzi TR [1] was half-maximal at 0.48 ± 0.02 µM (IC50). Besides, the “Ki, assumed inhibitor type uncompetitive” value on T. cruzi TR [2] (setting [9]) worked out at 0.80 ± 0.10 µM. Moreover, the figures for the Ki on T. cruzi TR [2] (setting [10]) and at T. cruzi TR [2] (setting [11]) were 0.19 ± 0.07 µM and 1.11 ± 0.13 µM, respectively. Moreover, the “Ki (Fig 7, uncompetitive mode of inhibition assumed)” value at T. cruzi TR [2] is reported as 0.80 ± 0.10. Also, in data set [4] (after 48 h and 72 h), the “EC50, inhibition of parasite proliferation (living cells counted)” value is recorded as “not active”.
`CCN(CC)CCCC(C)Nc1c2ccc(Cl)cc2nc2ccc(OC)cc12` (stereo not shown) [Mepacrine, reference compound] displayed an IC50 on T. cruzi TR [1] of more than 200 µM. For the same compound, the Ki was 20 ± 5 µM on T. cruzi TR [2] (setting [8]); 20.7 ± 5.47 µM on T. cruzi TR [2] (three independent experiments, fitted to the relevant binding model, read-out: measured Ki (Lineweaver-Burk plots, Fig 3)); 19 µM at TR. For the same compound, the “binding mode (inhibition type)” value at T. cruzi TR [2] was “competitive binding mode”.
Turning to `CC1CS(=O)(=O)CCN1/N=C/c1ccc([N+](=O)[O-])o1` (stereo not shown) [nifurtimox], in the data set on T. brucei, the EC50 was 2.5 µM.
